Source: the supplement of paper PMC10307832

How the values were obtained:
Test in all cases: relative viability (nuclei count vs DMSO), 5 days (fraction); higher = more cells survive
[1] = compound: CN1C=C(C2=CC=CC=C21)/C=C\3/C4=C(C=CC=N4)NC3=O + COc1cc2c(Oc3ccc(NC(=O)C4(C(=O)Nc5ccc(F)cc5)CC4)cc3F)ccnc2cc1OCCCN1CCOCC1 [Foretinib] (partner 0.25 µM)
Method in brief: (§1)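 Lung cancer cell lines were pin-tool dosed in 1536-well plates on the day after seeding, with either a lone drug or a fixed anchor-drug dose plus five library-drug doses (not always all listed) in √10 steps. Nuclei were counted on 4× images after 5 days. Relative viability is the ratio of treated-well to vehicle-well nuclei counts, with each value a median of duplicate plates.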

[2] = compound: CC(=O)Nc1cccc(-n2c(=O)n(C3CC3)c(=O)c3c(Nc4ccc(I)cc4F)n(C)c(=O)c(C)c32)c1 [Trametinib] + O=C(c1cc(Cc2n[nH]c(=O)c3ccccc23)ccc1F)N1CCN(C(=O)C2CC2)CC1 [Olaparib] (partner 8 µM)
Method in brief: as §1

[3] = compound: CN1C=C(C2=CC=CC=C21)/C=C\3/C4=C(C=CC=N4)NC3=O + O=C(c1cc(Cc2n[nH]c(=O)c3ccccc23)ccc1F)N1CCN(C(=O)C2CC2)CC1 [Olaparib] (partner 8 µM)
Method in brief: as §1

[4] = compound: CC(=O)Nc1cccc(-n2c(=O)n(C3CC3)c(=O)c3c(Nc4ccc(I)cc4F)n(C)c(=O)c(C)c32)c1 [Trametinib] + CS(=O)(=O)CCNCc1ccc(-c2ccc3ncnc(Nc4ccc(OCc5cccc(F)c5)c(Cl)c4)c3c2)o1 [Lapatinib] (partner 2 µM)
Method in brief: as §1

Cell Line | relative viability ([1]; first compound 0.02 µM) | relative viability ([1]; first compound 0.06325 µM) | relative viability ([1]; first compound 0.2 µM) | relative viability ([1]; first compound 0.6325 µM) | relative viability ([1]; first compound 2 µM) | relative viability ([2]; first compound 0.0025 µM) | relative viability ([2]; first compound 0.007906 µM) | relative viability ([2]; first compound 0.025 µM) | relative viability ([2]; first compound 0.07906 µM) | relative viability ([2]; first compound 0.25 µM) | relative viability ([3]; first compound 0.02 µM) | relative viability ([3]; first compound 0.06325 µM) | relative viability ([3]; first compound 0.2 µM) | relative viability ([3]; first compound 0.6325 µM) | relative viability ([3]; first compound 2 µM) | relative viability ([4]; first compound 0.0025 µM) | relative viability ([4]; first compound 0.007906 µM) | relative viability ([4]; first compound 0.025 µM) | relative viability ([4]; first compound 0.07906 µM) | relative viability ([4]; first compound 0.25 µM)
RERF-LC-KJ | 0.924 | 0.938 | 0.867 | 0.859 | 0.779 | 0.926 | 0.81 | 0.919 | 0.907 | 0.648 | 0.736 | 0.681 | 0.763 | 0.528 | 0.468 | 0.812 | 0.822 | 0.79 | 0.744 | 0.568
NCI-H2170 | 1.02 | 1.03 | 1.03 | 0.94 | 1.04 | 0.654 | 0.609 |  | 0.548 | 0.52 | 0.652 | 0.559 | 0.628 | 0.517 | 0.578 | 0.311 | 0.258 |  | 0.261 | 0.246
PC-14 | 0.993 | 0.975 | 1.04 | 0.959 | 1.01 | 0.282 | 0.225 | 0.216 | 0.222 | 0.106 | 0.213 | 0.237 | 0.197 | 0.235 | 0.251 | 0.27 | 0.194 | 0.182 | 0.192 | 0.192
NCI-H2009 | 1.22 | 1.19 | 1.19 | 1.24 | 1.24 | 0.693 | 0.768 | 0.508 | 0.338 | 0.308 | 0.598 | 0.636 | 0.703 | 0.677 | 0.604 | 0.841 | 0.612 | 0.225 | 0.343 | 0.236
Calu-6 | 0.818 | 0.893 | 0.727 | 0.779 | 0.834 | 0.589 | 0.452 | 0.214 | 0.142 | 0.129 | 0.504 | 0.528 | 0.569 | 0.488 | 0.787 | 0.962 | 0.779 | 0.566 | 0.237 | 0.165
NCI-H1395 | 0.889 | 0.942 | 0.864 | 0.992 | 0.868 | 0.441 | 0.458 | 0.419 | 0.463 | 0.392 | 0.461 | 0.476 | 0.455 | 0.527 | 0.457 | 1.05 | 0.869 | 0.834 | 0.907 | 0.406
NCI-H1437 | 1.34 | 1.22 | 1.34 | 1.31 | 1.3 | 0.601 | 0.518 | 0.446 | 0.422 | 0.443 | 0.628 | 0.644 | 0.657 | 0.681 | 0.658 | 0.673 | 0.278 | 0.17 | 0.178 | 0.209
NCI-H647 | 1.24 | 1.24 | 1.04 | 1.17 | 1.01 | 0.481 | 0.362 | 0.491 | 0.452 | 0.218 | 0.262 | 0.426 | 0.446 | 0.395 | 0.458 | 1.03 | 0.936 | 0.759 | 0.683 | 0.231
